Assay results published in ChEMBL document CHEMBL2346508, “Bifunctional inhibition of HIV-1 reverse transcriptase: a first step in designing a bifunctional triphosphate” (Bioorg Med Chem Lett, 2013).
Activity calls are given as the source filed them. No cut-off for these calls is given here.

Columns and labels:
[1] = system: Human immunodeficiency virus 1; experiment: Antiviral activity against HIV-1 infected un MT2 cells assessed as virus-induced cytopathicity after 5 days by MTT assay; format: functional, organism-based; details: Human immunodeficiency virus 1, MT2, 120 h
MT2 = experiment: Cytotoxicity against human MT2 cells after 5 days by MTT assay; format: cell-based; details: MT2, 120 h
[2] = target: Human immunodeficiency virus type 1 reverse transcriptase (Human immunodeficiency virus 1) (UniProt Q72547); experiment: Inhibition of HIV-1 RT assessed as inhibition of annealing of D23/D36 primer/template at 150 uM by polyacrylamide denaturing gel-based incorporation assay

Compound	EC50 [1] [µM]	IC50 (MT2) [µM]	inhibition [2]
CC(C)=CCN1Cc2c(OCCOCCOCCOCCOCCOCCOCCOCCOC(=O)CCc3cn([C@H]4C=C[C@@H](CO)O4)c(=O)[nH]c3=O)ccc3[nH]c(=S)n(c23)C[C@@H]1C	120	> 100	–
CC(C)=CCN1Cc2c(OCCOCCOCCOCCOCCOCCOC(=O)CCc3cn([C@H]4C=C[C@@H](CO)O4)c(=O)[nH]c3=O)ccc3[nH]c(=S)n(c23)C[C@@H]1C	100	> 100	–
CC(C)=CCN1Cc2c(OCCOCCOCCOCCOCCOCCn3c(=O)ccn([C@H]4C=C[C@@H](CO)O4)c3=O)ccc3[nH]c(=S)n(c23)C[C@@H]1C	20	38	–
Cc1cn([C@H]2C=C[C@@H](CO)O2)c(=O)[nH]c1=O [STAVUDINE]	2.2	> 100	–
CC(C)=CCN1Cc2c(OCCOCCOCCOCCOCCOCCn3c(=O)ccn([C@H]4C=C[C@@H](COP(=O)(O)OP(=O)(O)OP(=O)(O)O)O4)c3=O)ccc3[nH]c(=S)n(c23)C[C@@H]1C	–	–	inactive
CC(C)=CCN1Cc2c(OCCOCCOCCOCCOCCOCCOCCOCCO)ccc([N+](=O)[O-])c2NC[C@@H]1C	27	> 100	–
CC(C)=CCN1Cc2c(OCCOCCOCCOCCOC(=O)CCc3cn([C@H]4C=C[C@@H](CO)O4)c(=O)[nH]c3=O)ccc3[nH]c(=S)n(c23)C[C@@H]1C	45	> 100	–
